{"source": "paper PMC5114585", "about": "“Tomato FK506 Binding Protein 12KD (FKBP12) Mediates the Interaction between Rapamycin and Target of Rapamycin (TOR)” (Frontiers in Plant Science, 2016)", "molecular_target": "T1, SlFKBP12 (Solanum lycopersicum, UniProt A0A3Q7ERC2)", "T1 construct": "gene FKBP12", "T1 sequence (A0A3Q7ERC2 1-112)": "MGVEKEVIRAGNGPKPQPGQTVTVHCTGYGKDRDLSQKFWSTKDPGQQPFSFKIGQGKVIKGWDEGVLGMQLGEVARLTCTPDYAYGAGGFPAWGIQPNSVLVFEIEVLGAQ", "test": "protein gel shifting assay: native vs denatured extracts of treated seedlings, anti-HA immunoblot", "details": "0, 1, 5, 10 uM rapamycin for 24 h on seedlings; indirect read-out of ternary FKBP12-rapamycin-TOR complex (host Arabidopsis TOR)"}
{"smiles": "CO[C@H]1C[C@@H]2CC[C@@H](C)[C@@](O)(O2)C(=O)C(=O)N2CCCC[C@H]2C(=O)O[C@H]([C@H](C)C[C@@H]2CC[C@@H](O)[C@H](OC)C2)CC(=O)[C@H](C)/C=C(\\C)[C@@H](O)[C@@H](OC)C(=O)[C@H](C)C[C@H](C)/C=C/C=C/C=C/1C", "note": "[rapamycin]", "values": [{"measurement": "protein gel shifting assay: native vs denatured extracts of treated seedlings, a", "value": "with increasing of rapamycin, SlFKBP12 protein level displayed a decline trend in native stage"}]}
